The text below walks through data of US9193699B2, “Apoptosis inducing compounds” (INSTITUT NATIONAL DE LA SANTE ET DE LA RECHERCHE MEDICALE …, priority 2011, dated 2015).

For assay [1], the system named is caspase-3 and caspase-7 in MCF-10A cells. The assay can be described thus: Caspase 3/7 activation (Caspase-Glo 3/7) in MCF-10A normal cells. Format: cell-based. As to conditions: Homo sapiens, R=RLU at 20 μM/RLU at 0 μM, 24 h, read-out: Caspase 3/7 activation R (RLU fold increase from untreated cells). The protocol:
Human normal mammary epithelial MCF-10A cells were plated in a 96 well plate at 10000 cells/100 μL at 37° C. in 5% CO2. Serial dilutions of drugs (compounds 1, 3 or 4) ranging from 20 μM to 300 nM were added at day 0. Active caspase-3 and caspase-7 were measured in triplicate after 24 h treatment by incubating 50 μL of the Caspase-Glo 3/7 reagent for 60 min at 25° C. This reagent containing the proluminescent tetrapeptide sequence DEVD in a cell lysis buffer (Promega) (FIG. 9).
(§1) The calculated values R correspond to Relative Luminescence Units (RLU) fold increase from untreated cells (R=RLU at 20 μM/RLU at 0 μM).
(§2) Caspase 3/7 activation in MCF-10A and HME-1 normal cells was also measured.

In assay [2] the test system is Human normal mammary epithelial MCF-10A cells. Nature of the assay: Effect on growth of normal cells (alamar blue), MCF-10A. It counts as cell-based. Particulars: calculated on the basis of cell growth inhibition. The protocol: (§3) All biological experiments (Examples 2 to 9) have been performed with recommended cell line specific culture medium. For SUM149 and L226, culture medium is supplemented with 10% Fetal Calf Serum. For HME-1 and MCF-10A, culture medium is supplemented with 5% Horse Serum.
Human normal mammary epithelial MCF-10A cells were plated in a 96 well plate at 3000 cells/100 μL at 37° C. in 5% CO2. Serial dilutions of drugs (compounds 1, 3 or 4) ranging from 20 μM to 300 nM were added at day 0 and day 3. The number of viable cells was determined in triplicate at day 5 by incubating 10 μL of the alamar blue staining solution for 2 hours at 37° C. (FIG. 5).
(§4) IC50 values of compounds 1-14 for the inhibition of MCF-10A and HME-1 normal cells growth were also measured (according to the experimental procedure of Examples 4 and 5): […]

For assay [3], the system named is caspase-3 and caspase-7 in SUM149 cells. The assay can be described thus: Caspase 3/7 activation (Caspase-Glo 3/7) in SUM149 tumor cells. Particulars: Homo sapiens, R=RLU at 20 μM/RLU at 0 μM, 24 h, read-out: Caspase 3/7 activation R (RLU fold increase from untreated cells). It counts as cell-based. The protocol:
Human breast tumor SUM149 cells were plated in a 96 well plate at 10000 cells/100 μL at 37° C. in 5% CO2. Serial dilutions of drugs (compounds 1, 3 or 4) ranging from 20 μM to 300 nM were added at day 0. Active caspase-3 and caspase-7 were measured in triplicate after 24 h treatment by incubating 50 μL of the Caspase-Glo 3/7 reagent for 60 min at 25° C. This reagent containing the proluminescent tetrapeptide sequence DEVD in a cell lysis buffer (Promega) (FIG. 6).
(§5) Caspase 3/7 activation in SUM149 and L226 tumor cells was measured.
as §1

Assay [4] has as its system caspase-3 and caspase-7 in HME-1 cells. The assay can be described thus: Caspase 3/7 activation (Caspase-Glo 3/7) in HME-1 normal cells. It counts as cell-based. Particulars: Homo sapiens, HME1, R=RLU at 20 μM/RLU at 0 μM, 24 h, read-out: Caspase 3/7 activation R (RLU fold increase from untreated cells). The protocol: Human normal mammary epithelial HME-1 cells were plated in a 96 well plate at 10000 cells/100 μL at 37° C. in 5% CO2. Serial dilutions of drugs (compounds 1, 3 or 4) ranging from 20 μM to 300 nM were added at day 0. Active caspase-3 and caspase-7 were measured in triplicate after 24 h treatment by incubating 50 μL of the Caspase-Glo 3/7 reagent for 60 min at 25° C. This reagent containing the proluminescent tetrapeptide sequence DEVD in a cell lysis buffer (Promega) (FIG. 8).
as §1, §2

Assay [5] concerns tumors derived from MMTC-ErbB2/neu mice. Nature of the assay: TUNEL assay of tumor apoptosis in MMTV-ErB2/Neu mice. It counts as in vivo. Particulars: 100 mg/kg for 30 days. The protocol:
DNA fragmentation in apoptotic cells was analyzed by the TUNEL assay (ApopTag detection kit, Millipore) as recommended by the manufacturer.
Briefly, 4 μm sections of paraffin-embedded fixed tissue from tumors derived from MMTC-ErbB2/neu mice treated with vehicle or with Compound 12, 4 or 8 (100 mg/kg) for 30 days, were deparaffined with successive histolemon and ethanol washes, then treated with 20 μg/mL proteinase K for 15 min at room temperature. Endogenous peroxidise was quenched with 3% hydrogen peroxide. […] Coloration was performed using the diaminobenzidine mixed substrate (Dako). Counterstaining was done with a solution of 1% methyl green for 5 min at room temperature. After distilled water and N-butanol washes, specimens were mounted in Pertex medium (CellPath). Observations were made using the Leica DMD108 digital microimaging device (Leica Microsystems GmbH).

Assay [6] has as its system caspase-3 and caspase-7 in L226 cells. The assay can be described thus: Caspase 3/7 activation (Caspase-Glo 3/7) in L226 tumor cells. It counts as cell-based. Particulars: Homo sapiens, R=RLU at 20 μM/RLU at 0 μM, 24 h, read-out: Caspase 3/7 activation R (RLU fold increase from untreated cells). The protocol: Human breast tumor L226 cells were plated in a 96 well plate at 10000 cells/100 μL at 37° C. in 5% CO2. Serial dilutions of drugs (compounds 1, 3 or 4) ranging from 20 μM to 300 nM were added at day 0. Active caspase-3 and caspase-7 were measured in triplicate after 24 h treatment by incubating 50 μL of the Caspase-Glo 3/7 reagent for 60 min at 25° C. This reagent containing the proluminescent tetrapeptide sequence DEVD in a cell lysis buffer (Promega) (FIG. 7).
as §5, §1

Assay [7] has as its system Human breast tumor L226 cells. Nature of the assay: Inhibition of tumor cell growth (alamar blue), L226. As to conditions: 120 h, calculated on the basis of cell growth inhibition, day 5, alamar blue. It counts as cell-based. The protocol:
as §3
Human breast tumor L226 cells (Inflammatory Breast Cancer (IBC) of ERB-B2 subtype) were plated in a 96 well plate at 3000 cells/100 μL at 37° C. in 5% CO2. Serial dilutions of drugs (compounds 1, 3 or 4) ranging from 20 μM to 300 nM were added at day 0 and day 3. The number of viable cells was determined in triplicate at day 5 by incubating 10 μL of the alamar blue staining solution for 2 hours at 37° C. (FIG. 3).
IC50 values of compounds 1-14 for the inhibition of SUM149 and L226 tumor cells growth were measured (according to the experimental procedure of Examples 2 and 3): […]

Assay [8] deals with Human normal mammary epithelial HME-1 cells. The assay can be described thus: Effect on growth of normal cells (alamar blue), HME-1. As to conditions: HME1, calculated on the basis of cell growth inhibition. Format: cell-based. The protocol:
as §3
Human normal mammary epithelial HME-1 cells were plated in a 96 well plate at 3000 cells/100 μL at 37° C. in 5% CO2. Serial dilutions of drugs (compounds 1, 3 or 4) ranging from 20 μM to 300 nM were added at day 0 and day 3. The number of viable cells was determined in triplicate at day 5 by incubating 10 μL of the alamar blue staining solution for 2 hours at 37° C. (FIG. 4).
as §4

By IC50 is commonly meant the midpoint of a concentration-inhibition curve.

For the compound `Cc1c(C)c(C)c(S(=O)(=O)N2CCSC(C)(C)[C@@H]2C(=O)NO)c(C)c1C` [Compound 12, (3S)—N-hydroxy-4-[(2,3,4,5,6-pentamethylphenyl)sulfonyl]-2,2-dimethyl-3-thiomorpholine carboxamide], the fold induction at 20 µM stood at 1.1 in assay [1], 6.8 in assay [3], 1.2 in assay [4] and 6.2 in assay [6]. Moreover, the figures for the IC50 in assay [2], in assay [7] and in assay [8] were 15 µM, 2 µM and greater than 20 µM, respectively. The “percentage of cells having TdT positive nuclei in tumors” value in assay [5] turned out to be 70%.

`Cc1cc(C)c(C)c(S(=O)(=O)N2CCSC(C)(C)[C@@H]2C(=O)NO)c1C` [Compound 4, (3S)—N-hydroxy-4-[(2,3,5,6-tetramethylphenyl)sulfonyl]-2,2-dimethyl-3-thiomorpholine carboxamide]: the fold induction at 20 µM in assay [1] was 1; in assay [3], 4.4; in assay [4] it was 1; in assay [6] it was 7.4. Moreover, the figures for the IC50 in assay [2], in assay [7] and in assay [8] were 20 µM, 2.5 µM and greater than 20 µM, respectively. The “percentage of cells having TdT positive nuclei in tumors” value in assay [5] was determined as 50%.
